Reference: patent publication US5190741A, “Agents for diagnosing and treating melanomas, aromatic halogenated derivatives usable as such agents and their preparation” (Institut National de la Sante et de la Recherche Medicale …, priority 1989, dated 1993)

Experiments:
B16 murine melanoma = assay: Tissue distribution in C57 BL6 mice bearing B16; assay type: in vivo, mouse; conditions: for elimination kinetics: compared with derivative A; for marker of the B16 murine melanoma: mouse, in vivo
Description: The study of the tissue distribution of the ^125 I labelled compounds was performed in mice bearing grafted melanomas (cf. autoradiograms above). […] The animals are sacrificed at different time intervals of 1 to 24 hours after the injection. The blood is collected and the principal organs are excised. Aliquots are weighed and the radioactivity of the samples is measured in a […] 1191 counter (analytic tracer). The counting yield for iodine 125 is 60%. The results are expressed: as a percentage of the injected dose bound per g of tissue (% ID/g); in the form of the ratios [formula] This ratio reflects more precisely the selectivity of a molecule for an organ (tables 2, 4, 6, 8, 10 and 12).

melanoma in man = conditions: in vivo; cited from earlier work
melanoma = conditions: in vivo; cited from earlier work
grafted tumors = conditions: animals bearing grafted tumors; cited from earlier work

Row | Structure (SMILES) | elimination kinetics (B16 murine melanoma) | marker of the B16 murine melanoma (B16 murine melanoma) | also measured
1 | CN(C)CCNC(=O)c1ccc(I)cc1 [Derivative E] | more rapid elimination | markers of the B16 murine melanoma | possibility for use in scanning (B16 murine melanoma; between 3 h and 6 h after administration): possibilities for use in scanning between 3 h and 6 h
2 | CC(C)N(CCNC(=O)c1ccc(I)cc1)C(C)C [Derivative G] |  | markers of the B16 murine melanoma | 
3 | CN(C)CCCNC(=O)c1ccc(I)cc1 [Derivative J] | more rapid elimination | markers of the B16 murine melanoma | 
4 | CCN(CC)CCCNC(=O)c1ccc(I)cc1 [Derivative L] | more rapid elimination | markers of the B16 murine melanoma | 
5 | CC(C)NC(C)Cc1ccc([123I])cc1 (stereo not drawn) [^123 I-IMP] |  |  | detection of melanoma in man (melanoma in man): used for the detection of melanoma in man
6 | O=C([O-])CC(O)(CC(=O)[O-])C(=O)[O-].[67Ga+3] [citrate of gallium 67] |  |  | elimination from the digestive tract (melanoma): very slow elimination from the digestive tract; localization in the liver and the kidney (melanoma): late and extensive localization in the liver and the kidney
7 | O=c1[nH]c(=S)[nH]cc1I [iodothiouracil labelled with ^125 I, iodothiouracil] |  |  | localization and treatment of malignant melanoma (grafted tumors): promising agent for the localization and the treatment of malignant melanoma
